Measured values as given in patent US20250382303A1, “NOVEL COMPOUND AS NADPH OXIDASE 2 INHIBITOR AND PHARMACEUTICAL COMPOSITION CONTAINING SAME” (DONGGUK UNIVERSITY INDUSTRY-ACADEMIC COOPERATION FOUNDATION, priority 2022, published 2025).

How the values were obtained:
NOX2 = target: T1, NOX2 (Homo sapiens, UniProt P04839); experiment: NOX2 activity assay: PMA-induced ROS in ATRA-differentiated HL-60 cells (WST-1 or Amplex Red/HRP probe); type: cell-based; settings: for IC50: WST-1 probe, differentiated HL-60, 200 ng/mL PMA, read-out: Inhibitory ability (NOX2); for NOX2 inhibitory ability, verbal rating: WST-1, comment on Table 1
T1 construct: Used for the NOX2 activity assay was human leukemia 60 cells (HL-60), which are widely, universally used to assess NOX2 activity; endogenous in cells
T1 sequence (P04839 2-570 limits assumed): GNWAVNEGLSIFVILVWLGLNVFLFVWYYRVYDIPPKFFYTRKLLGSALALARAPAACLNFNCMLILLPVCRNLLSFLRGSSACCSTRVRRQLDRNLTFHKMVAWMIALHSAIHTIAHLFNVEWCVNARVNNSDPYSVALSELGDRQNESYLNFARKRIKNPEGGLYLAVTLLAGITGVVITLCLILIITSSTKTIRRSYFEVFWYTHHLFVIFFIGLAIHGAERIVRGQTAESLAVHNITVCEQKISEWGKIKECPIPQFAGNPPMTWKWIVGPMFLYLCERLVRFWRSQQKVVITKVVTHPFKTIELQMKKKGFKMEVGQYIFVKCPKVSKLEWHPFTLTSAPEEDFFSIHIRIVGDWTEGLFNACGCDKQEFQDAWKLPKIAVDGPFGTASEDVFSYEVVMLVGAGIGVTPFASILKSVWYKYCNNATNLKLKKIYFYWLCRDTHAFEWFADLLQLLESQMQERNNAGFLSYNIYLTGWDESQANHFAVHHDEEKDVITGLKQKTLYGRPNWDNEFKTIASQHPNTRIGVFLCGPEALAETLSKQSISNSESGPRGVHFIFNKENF
T1 sequence (P13498 2-195 partner limits assumed): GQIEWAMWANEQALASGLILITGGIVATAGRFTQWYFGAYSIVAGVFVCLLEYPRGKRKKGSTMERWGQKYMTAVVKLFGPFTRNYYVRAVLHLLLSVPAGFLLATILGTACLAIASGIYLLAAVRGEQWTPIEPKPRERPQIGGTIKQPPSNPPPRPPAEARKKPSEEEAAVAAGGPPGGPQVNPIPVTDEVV
Experimental: NOX activity was evaluated by measuring the reactive oxygen species (ROS) produced by NOX. The probes that were used to measure ROS were water soluble tetrazolium-1 (WST-1, superoxide-specific colorimetric probe) and Amplex Red/horseradish peroxidase (AR/HRP, hydrogen peroxide-specific fluorometric probe), and the concentration of the probes used was […]. For WST-1, the change in the absorbance at 450 nm was measured, and, for AR, the change in fluorescence signals was measured at 560 nm and 585 nm, respectively for excitation wavelength (Ex) and emission wavelength (Em). The optical signal was measured using the SpectraMax M3 microplate reader from Molecular Devices at 37° C. for 60 minutes.
Used for the NOX2 activity assay was human leukemia 60 cells (HL-60), which are widely, universally used to assess NOX2 activity. 1×10^5 cells/mL of HL-60 were treated with […] all-trans-retinoic acid (ATRA) for 4 days to induce differentiation. Differentiated HL-60 (diff. HL-60) was centrifuged at 200 g for 5 minutes and washed twice with HBSS. Differentiation was induced to reach 3×10^4 cells/well on a 96-well plate (diff). HL-60 was seeded. The test material was treated to cells and left in a 37° C. incubator for 60 minutes. As a control group, the same concentration of DMSO, which is the vehicle of the test material, was used. 200 ng/mL phorbol 12-myristate 13-acetate (PMA) was used as the NOX2 activator, and the production amount of ROS induced by PMA was measured for 60 minutes. […] diphenyleneiodonium (DPI), which is well known to inhibit NOX, was used as a positive control group to evaluate whether the NOX2 activity tester properly operates.

[1] = Non-specific free radical scavenging: superoxide produced by xanthine/xanthine oxidase, measured by WST-1; type: biochemical; settings: compound at 10 or 30 μM
Experimental: The scavenging activity that the effective compound in 10 or 30 μM scavenges the superoxide produced by xanthine/xanthine oxidase was measured by WST-1, the results of which are shown in Table 2.

Row | SMILES | IC50 (NOX2) [µM] | scavenging of superoxide produced by xanthine/xanthine oxidase [1] | NOX2 inhibitory ability, verbal rating (NOX2)
1 | CC12CC(NC(=O)N1c1cccc(C(=O)N3CCc4ccccc4C3)c1)c1ccccc1O2 (racemic) [Compound 8a, 2-Methyl-3-(3-(1,2,3,4-tetrahydroisoquinoline-2-carbonyl)phenyl)-5,6-dihydro-2H-2,6-methanobenzo[g][1,3,5]oxadiazocin-4(3H)-one] | 1 to 10 | did not exhibit significant peroxide scavenging ability | –
2 | CC12CC(NC(=O)N1c1cccc(C(=O)N3CCc4cccc(F)c4C3)c1)c1cc(Br)ccc1O2 (centres unmarked) [Compound 27c, 8-Bromo-3-(3-(8-fluoro-1,2,3,4-tetrahydroisoquinoline-2-carbonyl)phenyl)-2-methyl-5,6-dihydro-2H-2,6-methanobenzo[g][1,3,5]oxadiazocin-4(3H)-one] | > 10 | – | –
3 | CC12CC(NC(=O)N1c1cccc(C(=O)N3CCc4c(cccc4C(F)(F)F)C3)c1)c1cc(Br)ccc1O2 (centres unmarked) [Compound 27e, 8-Bromo-2-methyl-3-(3-(5-(trifluoromethyl)-1,2,3,4-tetrahydroisoquinoline-2-carbonyl)phenyl)-5,6-dihydro-2H-2,6-methanobenzo[g][1,3,5]oxadiazocin-4(3H)-one] | 1 to 10 | – | –
4 | CC12CC(NC(=O)N1c1cccc(C(=O)N3CCc4cc(C(F)(F)F)ccc4C3)c1)c1cc(Br)ccc1O2 (centres unmarked) [Compound 27h, 8-Bromo-2-methyl-3-(3-(6-(trifluoromethyl)-1,2,3,4-tetrahydroisoquinoline-2-carbonyl)phenyl)-5,6-dihydro-2H-2,6-methanobenzo[g][1,3,5]oxadiazocin-4(3H)-one] | 1 to 10 | – | –
5 | CC12CC(NC(=O)N1c1cccc(C(=O)N3CCc4ccc(F)cc4C3)c1)c1cc(-c3ccoc3)ccc1O2 (centres unmarked) [Compound 28a, 3-(3-(7-Fluoro-1,2,3,4-tetrahydroisoquinoline-2-carbonyl)phenyl)-8-(furan-3-yl)-2-methyl-5,6-dihydro-2H-2,6-methanobenzo[g][1,3,5]oxadiazocin-4(3H)-one] | 1 to 10 | – | –
6 | CC12CC(NC(=O)N1c1cccc(C(=O)N3CCc4cc(F)ccc4C3)c1)c1cc(-c3ccoc3)ccc1O2 (centres unmarked) [Compound 28b, 3-(3-(6-Fluoro-1,2,3,4-tetrahydroisoquinoline-2-carbonyl)phenyl)-8-(furan-3-yl)-2-methyl-5,6-dihydro-2H-2,6-methanobenzo[g][1,3,5]oxadiazocin-4(3H)-one] | 1 to 10 | – | excellent inhibitory ability
7 | CC12CC(NC(=O)N1c1cccc(C(=O)N3CCc4cccc(F)c4C3)c1)c1cc(-c3ccoc3)ccc1O2 (centres unmarked) [Compound 28c, 3-(3-(8-Fluoro-1,2,3,4-tetrahydroisoquinoline-2-carbonyl)phenyl)-8-(furan-3-yl)-2-methyl-5,6-dihydro-2H-2,6-methanobenzo[g][1,3,5]oxadiazocin-4(3H)-one] | > 10 | – | excellent inhibitory ability
8 | CC12CC(NC(=O)N1c1cccc(C(=O)N3CCc4c(F)cccc4C3)c1)c1cc(-c3ccoc3)ccc1O2 (centres unmarked) [Compound 28d, 3-(3-(5-Fluoro-1,2,3,4-tetrahydroisoquinoline-2-carbonyl)phenyl)-8-(furan-3-yl)-2-methyl-5,6-dihydro-2H-2,6-methanobenzo[g][1,3,5]oxadiazocin-4(3H)-one] | > 10 | – | excellent inhibitory ability
9 | CC12CC(NC(=O)N1c1cccc(C(=O)N3CCc4c(cccc4C(F)(F)F)C3)c1)c1cc(-c3ccoc3)ccc1O2 (centres unmarked) [Compound 28e, 8-(Furan-3-yl)-2-methyl-3-(3-(5-(trifluoromethyl)-1,2,3,4-tetrahydroisoquinoline-2-carbonyl)phenyl)-5,6-dihydro-2H-2,6-methanobenzo[g][1,3,5]oxadiazocin-4(3H)-one] | 1 to 10 | – | –
10 | CC12CC(NC(=O)N1c1cccc(C(=O)N3CCc4ccc(C(F)(F)F)cc4C3)c1)c1cc(-c3ccoc3)ccc1O2 (centres unmarked) [Compound 28f, 8-(Furan-3-yl)-2-methyl-3-(3-(7-(trifluoromethyl)-1,2,3,4-tetrahydroisoquinoline-2-carbonyl)phenyl)-5,6-dihydro-2H-2,6-methanobenzo[g][1,3,5]oxadiazocin-4(3H)-one] | > 10 | – | –
11 | CC12CC(NC(=O)N1c1cccc(C(=O)N3CCc4cccc(C(F)(F)F)c4C3)c1)c1cc(-c3ccoc3)ccc1O2 (centres unmarked) [Compound 28g, 8-(Furan-3-yl)-2-methyl-3-(3-(8-(trifluoromethyl)-1,2,3,4-tetrahydroisoquinoline-2-carbonyl)phenyl)-5,6-dihydro-2H-2,6-methanobenzo[g][1,3,5]oxadiazocin-4(3H)-one] | > 10 | – | –
12 | CC12CC(NC(=O)N1c1cccc(C(=O)N3CCc4cc(C(F)(F)F)ccc4C3)c1)c1cc(-c3ccoc3)ccc1O2 (centres unmarked) [Compound 28h, 8-(Furan-3-yl)-2-methyl-3-(3-(6-(trifluoromethyl)-1,2,3,4-tetrahydroisoquinoline-2-carbonyl)phenyl)-5,6-dihydro-2H-2,6-methanobenzo[g][1,3,5]oxadiazocin-4(3H)-one] | > 10 | – | –
13 | CC1(C)CN(C(=O)c2cccc(N3C(=O)NC4CC3(C)Oc3ccc(-c5ccoc5)cc34)c2)Cc2ccccc21 (centres unmarked) [Compound 28i, 3-(3-(4,4-Dimethyl-1,2,3,4-tetrahydroisoquinoline-2-carbonyl)phenyl)-8-(furan-3-yl)-2-methyl-5,6-dihydro-2H-2,6-methanobenzo[g][1,3,5]oxadiazocin-4(3H)-one] | 1 to 10 | – | –
14 | CC12CC(NC(=O)N1c1cccc(C(=O)N3CCc4ccccc4C3(C)C)c1)c1cc(-c3ccoc3)ccc1O2 (centres unmarked) [Compound 28j, 3-(3-(1,1-Dimethyl-1,2,3,4-tetrahydroisoquinoline-2-carbonyl)phenyl)-8-(furan-3-yl)-2-methyl-5,6-dihydro-2H-2,6-methanobenzo[g][1,3,5]oxadiazocin-4(3H)-one] | > 10 | – | excellent inhibitory ability
15 | CC12CC(NC(=O)N1c1cccc(C(=O)N3CCc4ncccc4C3)c1)c1cc(-c3ccoc3)ccc1O2 (centres unmarked) [Compound 28k, 8-(Furan-3-yl)-2-methyl-3-(3-(5,6,7,8-tetrahydro-1,6-naphthyridine-6-carbonyl)phenyl)-5,6-dihydro-2H-2,6-methanobenzo[g][1,3,5]oxadiazocin-4(3H)-one] | > 10 | – | –
